The source of these data is ChEMBL document CHEMBL3044544, “Synthesis, preliminary cytotoxicity evaluation of new 3-formylchromone hydrazones and phosphorohydrazone derivatives of coumarin and chromone” (Med Chem Res, 2012).

One may read the IC50 as the concentration at which inhibition is half-maximal.

The structures appear in SMILES notation. Where a name gives a salt, the structure may show the parent alone. Calls of active or inactive are those of the source. The calls are words filed in the database; no cut-off is given here. Bounds are passed on as bounds.

Common to all, as to format: functional, cell-based
Experiment [1] has as its system HL-60. The experiment is described as follows: Cytotoxicity against Homo sapiens (human) HL60 cells assessed as reduction in cell survival fraction after 48 hr by MTT assay. To be noted: HL-60, 48 h. In general terms: Formazan colour is commonly taken as a measure of viable cells.
The test system of another experiment is NALM-6. The experiment is described as follows: Cytotoxicity against Homo sapiens (human) NALM6 cells assessed as reduction in cell survival fraction after 48 hr by MTT assay. The conditions noted are these: NALM-6, 48 h.
A short description of experiment [2]: Cytotoxicity against Homo sapiens (human) HL60/ADR cells assessed as reduction in cell survival fraction after 48 hr by MTT assay.
The test system of experiment [3] is HL-60. The experiment is described as follows: Induction of apoptosis in Homo sapiens (human) HL60 cells assessed as increase in cytosolic cytochrome c level at 5 times IC50 after 0.5 hr by ELISA.
Experiment [4] has as its system HL-60. The experiment is described as follows: Induction of apoptosis in Homo sapiens (human) HL60 cells assessed as increase in cytosolic cytochrome c level at IC50 after 0.5 hr by ELISA.
Experiment [5] relates to HL-60. The experiment is described as follows: Induction of apoptosis in Homo sapiens (human) HL60 cells assessed as increase in cytosolic cytochrome c level at 0.2 times IC50 after 0.5 hr by ELISA. Background: In an ELISA, binding on a coated surface is turned into a signal by an enzyme label.
Experiment [6] deals with HL-60. Description: Induction of apoptosis in Homo sapiens (human) HL60 cells assessed as increase in cytosolic cytochrome c level at 0.2 to 5 times IC50 by ELISA. To be noted: TDE = time-dependent effect.
The test system of experiment [7] is HL-60. Description: Induction of apoptosis in Homo sapiens (human) HL60 cells assessed as increase in cytosolic cytochrome c level after 0.5 to 4 hr by ELISA.

Turning to `COC(=O)N/N=C/c1c(N)oc2ccccc2c1=O`, the concentration for half-maximal inhibition (IC50) is 463 µM in the experiment with HL-60 [1] and 407 µM with NALM-6.

For the molecule `Nc1oc2ccccc2c(=O)c1/C=N/Nc1ccc(C(=O)O)cc1`, the IC50 was found to be 940 µM with HL-60 [1] and 628 µM in the experiment with NALM-6.

Take `Cc1cc2oc(N)c(/C=N/NCCO)c(=O)c2cc1C`: the 50% inhibitory concentration (IC50) in the experiment on HL-60 [1] was 23.5 µM; in the experiment on NALM-6, 65.3 µM.

Regarding `Nc1oc2ccccc2c(=O)c1/C=N/N=C(c1ccccc1)c1ccccc1`, the IC50 with HL-60 [1] was 56.2 µM; in experiment [2], 54.8 µM; in the experiment with NALM-6, 102 µM.

Regarding `COP(=S)(OC)N(C)/N=C/c1coc2ccccc2c1=O`, the result with HL-60 [3], in the experiment with HL-60 [4] and in the experiment on HL-60 [5] was Active. Also, the results for the Activity entry with HL-60 [6] and in the experiment on HL-60 [7] were “tde” and “Dose-dependent effect”, respectively. In addition, the half-maximal inhibitory concentration (IC50) in the experiment on HL-60 [1] worked out at 34.4 µM; in experiment [2] it was 30.6 µM; with NALM-6 it was 28.8 µM.

With `COc1cccc2c1C(=O)c1c(O)c3c(c(O)c1C2=O)C[C@@](O)(C(=O)CO)C[C@@H]3O[C@H]1C[C@H](N)[C@H](O)[C@H](C)O1` [DOXORUBICIN HYDROCHLORIDE], the half-inhibitory concentration (IC50) in the experiment with HL-60 [1] worked out at 0.04 µM.

For `O=c1c(/C=N/Nc2cc(Cl)ccc2Cl)coc2ccccc12`, the figures for the half-inhibitory concentration (IC50) in the experiment with HL-60 [1] and in the experiment on NALM-6 were 265 µM and 85.3 µM, respectively.

For `COP(=S)(OC)N(C)/N=C/c1c(O)c2ccccc2oc1=O`, the IC50 in the experiment on HL-60 [1] was 61.8 µM; with NALM-6, 56.5 µM.

Regarding `Nc1oc2ccccc2c(=O)c1/C=N/NCCO`, the IC50 in the experiment with HL-60 [1] turned out to be 48.5 µM; in the experiment on NALM-6, 42.1 µM.

`Nc1oc2ccccc2c(=O)c1/C=N/Nc1cc(Cl)ccc1Cl`: the IC50 in the experiment on HL-60 [1] was greater than 1000 µM; with NALM-6, 500 µM.

For the molecule `CCOP(=S)(OCC)N(C)/N=C/c1c(O)c2ccccc2oc1=O`, the results for the IC50 with HL-60 [1] and in the experiment on NALM-6 were 86.3 µM and 66.5 µM, respectively.

In the case of `COC(=O)N/N=C/c1coc2ccccc2c1=O`, the results for the IC50 in the experiment on HL-60 [1] and in the experiment on NALM-6 were 371 µM and 309 µM, respectively.

On to `CC(=O)CC(c1ccccc1)c1c(O)c2ccccc2oc1=O` (stereo not given) [WARFARIN], for which the IC50 with HL-60 [1] was determined as 486 µM; in the experiment on NALM-6, 74.8 µM.

`Nc1oc2ccc(Cl)cc2c(=O)c1/C=N/NCCO`: the outcome in the experiment with HL-60 [3], in the experiment with HL-60 [4] and in the experiment with HL-60 [5] was Active. The figures for the Activity result in the experiment on HL-60 [6] and with HL-60 [7] were “tde” and “Dose-dependent effect”, respectively. In addition, the results for the IC50 (with HL-60 [1]; in experiment [2]; in the experiment on NALM-6) were 6.6 µM, 7.9 µM and 28 µM, respectively.
